Assay results from US20120034641A1, “BIOLOGICAL INFORMATION ACQUISITION METHOD” (SONY CORPORATION, priority 2010, published 2012).

Columns and labels:
[1] = system: three-dimensional culture skin (Kurabo; EPI-200X); test: Nicotinamide metabolites on the epidermis surface of cultured skin after adding cortisol to the culture solution; assay type: cell-based; conditions: glucocorticoid (cortisol) 50 nM or 500 nM in culture solution, sample collected from epidermis side after 1 hour
Method: Assessment was made as to the ability of a cultured skin to secrete nicotinamide metabolites on the horny layer of epidermis surface in response to cortisol or glucose. A three-dimensional culture skin (Kurabo; EPI-200X) was cultured with its dermis side in contact with the culture solution. Glucocorticoid (cortisol) was added to the culture solution to make the final concentration 50 nM or 500 nM. After 1 hour, 150 μL of PBS was contacted to the epidermis side, and the sample was collected. The amounts of NAD+, NADH, NADP+, and NADPH in the sample were then measured using commercially available colorimetric analysis kits (Amplite Colorimetric NAD/NADH Assay Kit, Amplite Colorimetric NADP/NADPH Assay Kit; ABD Bioquest Inc.).

[2] = intake of alcohol while eating vs no alcohol; FIG. 10
Method: The tip of index finger was gently wiped with a paper towel soaked with pure water. The bottom end of a microtube containing 50 μL of pure water was held with the thumb, with the upper opening of the microtube in contact with the tip of the index finger (see FIG. 1A). With the microtube held with the index finger and the thumb, the microtube was inverted to contact the pure water to the skin surface of the index finger for 1 minute.
Eleven subjects were allowed to eat the same food during the time period of from 12:00 to 13:00, and the epidermal fluid was collected at 12:00, 13:00, 14:00, 15:00, and 16:00.

Structure (SMILES) | NAD+/NADH ratio ([1]; FIG. 12A) | NADP+/NADPH ratio ([1]; FIG. 12B) | transient increase in NAD+/NADH ratio in epidermal fluid [2]
C[C@]12CCC(=O)C=C1CC[C@@H]1[C@@H]2[C@@H](O)C[C@@]2(C)[C@H]1CC[C@]2(O)C(=O)CO [glucocorticoid, cortisol] | increased concentration dependently | no change | 
CCO [alcohol] |  |  | more enhanced
